According to ChEMBL document CHEMBL4627364, “Design, synthesis and biological evaluation of novel hybrids of N-aryl pyrrothine-base α-pyrone as bacterial RNA polymerase inhibitors” (Bioorg Med Chem Lett, 2020):
Values after ≈ are worked out from the molar mass of the structure shown.

Experiments:
[1] = tested on: Pseudomonas aeruginosa; assay: Antibacterial activity against Pseudomonas aeruginosa ATCC 27853 assessed as bacterial growth inhibition; assay type: functional
[2] = tested on: Escherichia coli; assay: Antibacterial activity against Escherichia coli ATCC 25922 assessed as bacterial growth inhibition; assay type: functional
[3] = tested on: Staphylococcus aureus; assay: Antibacterial activity against Staphylococcus aureus ATCC 29213 assessed as bacterial growth inhibition; assay type: functional
[4] = tested on: Escherichia coli; assay: Inhibition of Escherichia coli RNA polymerase at 200 uM relative to control
[5] = tested on: Bacillus subtilis; assay: Antibacterial activity against Bacillus subtilis ATCC 6633 assessed as bacterial growth inhibition; assay type: functional
[6] = tested on: Enterococcus faecalis; assay: Antibacterial activity against Enterococcus faecalis ATCC 29212 assessed as bacterial growth inhibition; assay type: functional
[7] = tested on: Candida albicans; assay: Antifungal activity against Candida albicans ATCC 10231 assessed as fungal growth inhibition; assay type: functional
[8] = tested on: HepG2; assay: Cytotoxicity against human HepG2 cells assessed as reduction in cell viability by MTT assay; assay type: cell-based
[9] = Inhibition of Escherichia coli RNA polymerase
[10] = tested on: Staphylococcus aureus; assay: Antibacterial activity against rifampicin-resistant Staphylococcus aureus assessed as bacterial growth inhibition; assay type: functional
[11] = tested on: Staphylococcus aureus; assay: Antibacterial activity against methicillin-resistant Staphylococcus aureus assessed as bacterial growth inhibition; assay type: functional
[12] = tested on: Staphylococcus aureus; assay: Antibacterial activity against vancomycin-resistant Staphylococcus aureus assessed as bacterial growth inhibition; assay type: functional
[13] = Inhibition of recombinant Escherichia coli RNA polymerase

SMILES | MIC [1] [µg/mL] | MIC [2] [µg/mL] | MIC [3] [µg/mL] | inhibition [4] [%] | MIC [5] [µg/mL] | MIC [6] [µg/mL] | MIC [7] [µg/mL] | IC50 [8] [µM] | IC50 [9] [µM] | MIC [10] [µg/mL] | MIC [11] [µg/mL] | MIC [12] [µg/mL] | IC50 [13] [µM]
COc1ccc(-n2c3cssc-3c(NC(=O)NCCOC(=O)CCCCC(=O)c3c(O)cc(C)oc3=O)c2=O)c(OC)c1 | > 128 | > 64 | 4 (≈ 6.33 µM) | 36.5 | 128 (≈ 203 µM) | 16 (≈ 25.3 µM) | > 128 | – | – | – | – | – | –
COc1ccc(-n2c3cssc-3c(NC(=O)OCCOC(=O)CCCCC(=O)c3c(O)cc(C)oc3=O)c2=O)c(OC)c1 | > 128 | > 128 | 2 (≈ 3.16 µM) | – | 32 (≈ 50.6 µM) | 16 (≈ 25.3 µM) | > 128 | 9.43 | 65.9 | 2 to 4 (≈ 3.16 to 6.32 µM) | 1 to 2 (≈ 1.58 to 3.16 µM) | 2 to 4 (≈ 3.16 to 6.32 µM) | –
CO[C@H]1/C=C/O[C@@]2(C)Oc3c(C)c(O)c4c(O)c(c(/C=N/N5CCN(C)CC5)c(O)c4c3C2=O)NC(=O)/C(C)=C\C=C\[C@H](C)[C@H](O)[C@@H](C)[C@@H](O)[C@@H](C)[C@H](OC(C)=O)[C@@H]1C [RIFAMPIN] | > 64 | 8 (≈ 9.72 µM) | 0.5 (≈ 0.608 µM) | – | 0.125 (≈ 0.152 µM) | 0.5 (≈ 0.608 µM) | > 64 | 145 | 0.14 | > 64 | 0.125 to 0.25 (≈ 0.152 to 0.304 µM) | 0.0625 to 0.125 (≈ 0.0759 to 0.152 µM) | –
COc1ccc(-n2c3cssc-3c(NC(=O)CCCC(=O)c3c(O)cc(C)oc3=O)c2=O)c(OC)c1 | > 128 | > 64 | 2 (≈ 3.77 µM) | 35.4 | 32 (≈ 60.3 µM) | 16 (≈ 30.2 µM) | > 128 | 29 | – | 2 to 4 (≈ 3.77 to 7.54 µM) | 1 to 2 (≈ 1.88 to 3.77 µM) | 4 to 8 (≈ 7.54 to 15.1 µM) | –
COc1ccc(-n2c3cssc-3c(NC(=O)OCCOC(=O)CCCC(=O)c3c(O)cc(C)oc3=O)c2=O)c(OC)c1 | > 128 | > 128 | 1 (≈ 1.62 µM) | 41.3 | 32 (≈ 51.7 µM) | 4 (≈ 6.47 µM) | > 128 | 1.97 | – | 1 to 2 (≈ 1.62 to 3.23 µM) | 1 to 2 (≈ 1.62 to 3.23 µM) | 4 to 8 (≈ 6.47 to 12.9 µM) | –
COc1ccc(-n2c3cssc-3c(NC(=O)N(C)CCOC(=O)CCCCCCC(=O)c3c(O)cc(C)oc3=O)c2=O)c(OC)c1 | > 128 | > 64 | 16 (≈ 23.7 µM) | 32.1 | 32 (≈ 47.5 µM) | 8 (≈ 11.9 µM) | > 128 | – | – | – | – | – | –
COc1ccc(-n2c3cssc-3c(NC(=O)N(C)CCOC(=O)CCCC(=O)c3c(O)cc(C)oc3=O)c2=O)c(OC)c1 | > 128 | > 128 | 2 (≈ 3.17 µM) | 23.8 | 32 (≈ 50.7 µM) | 2 (≈ 3.17 µM) | > 128 | 5.32 | – | 2 to 4 (≈ 3.17 to 6.33 µM) | 1 to 2 (≈ 1.58 to 3.17 µM) | 2 to 4 (≈ 3.17 to 6.33 µM) | –
COc1ccc(-n2c3cssc-3c(NC(=O)N(C)CCOC(=O)CCCCC(=O)c3c(O)cc(C)oc3=O)c2=O)c(OC)c1 | > 128 | > 128 | 2 (≈ 3.1 µM) | – | 32 (≈ 49.6 µM) | 16 (≈ 24.8 µM) | > 128 | 2.76 | 45.9 | 1 to 2 (≈ 1.55 to 3.1 µM) | 1 to 2 (≈ 1.55 to 3.1 µM) | 4 to 8 (≈ 6.19 to 12.4 µM) | –
CCC/C(C)=C/C=C(\C)C(=O)c1c(O)cc([C@H](C)CC/C=C/NC(=O)OC)oc1=O [MYXOPORIN A] | – | – | – | – | – | – | – | – | – | – | – | – | 24
COc1ccc(-n2c3cssc-3c(NC(=O)CCCCCCC(=O)c3c(O)cc(C)oc3=O)c2=O)c(OC)c1 | > 128 | > 128 | 64 (≈ 112 µM) | 43.4 | 32 (≈ 55.9 µM) | > 128 | > 128 | – | – | – | – | – | –
CN[C@H](CC(C)C)C(=O)N[C@H]1C(=O)N[C@@H](CC(N)=O)C(=O)N[C@H]2C(=O)N[C@H]3C(=O)N[C@H](C(=O)N[C@H](C(=O)O)c4cc(O)cc(O)c4-c4cc3ccc4O)[C@H](O)c3ccc(c(Cl)c3)Oc3cc2cc(c3O[C@@H]2O[C@H](CO)[C@@H](O)[C@H](O)[C@H]2O[C@H]2C[C@](C)(N)[C@H](O)[C@H](C)O2)Oc2ccc(cc2Cl)[C@H]1O [VANCOMYCIN] | – | > 128 | – | – | 1 (≈ 0.69 µM) | – | – | – | – | 1 to 2 (≈ 0.69 to 1.38 µM) | 1 to 2 (≈ 0.69 to 1.38 µM) | > 64 | –
O=C(O)c1cn(C2CC2)c2cc(N3CCNCC3)c(F)cc2c1=O [CIPROFLOXACIN] | – | 0.00625 (≈ 0.0189 µM) | 0.078 (≈ 0.235 µM) | – | 0.125 (≈ 0.377 µM) | 0.5 (≈ 1.51 µM) | – | – | – | – | – | – | –
COc1ccc(-n2c3cssc-3c(NC(=O)NCCOC(=O)CCCCCCC(=O)c3c(O)cc(C)oc3=O)c2=O)c(OC)c1 | > 128 | > 128 | 128 (≈ 194 µM) | – | 128 (≈ 194 µM) | 32 (≈ 48.5 µM) | > 128 | – | 56.3 | – | – | – | –
COc1ccc(-n2c3cssc-3c(NC(=O)NCCOC(=O)CCCC(=O)c3c(O)cc(C)oc3=O)c2=O)c(OC)c1 | > 128 | > 64 | 32 (≈ 51.8 µM) | 25.3 | 32 (≈ 51.8 µM) | 4 (≈ 6.48 µM) | > 128 | – | – | – | – | – | –
COc1ccc(-n2c3cssc-3c(NC(=O)CCCCC(=O)c3c(O)cc(C)oc3=O)c2=O)c(OC)c1 | > 128 | > 128 | 2 (≈ 3.67 µM) | 42.4 | 16 (≈ 29.4 µM) | 64 (≈ 118 µM) | > 128 | – | – | – | – | – | –
COc1ccc(-n2c3cssc-3c(NC(=O)OCCOC(=O)CCCCCCC(=O)c3c(O)cc(C)oc3=O)c2=O)c(OC)c1 | > 128 | > 128 | 1 (≈ 1.51 µM) | – | 32 (≈ 48.4 µM) | 2 (≈ 3.03 µM) | > 128 | 7.04 | 16.1 | 1 to 2 (≈ 1.51 to 3.03 µM) | 1 to 2 (≈ 1.51 to 3.03 µM) | 2 to 4 (≈ 3.03 to 6.05 µM) | –
